PubChem BioAssay (NCI)
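All cell lines were grown in 96-well plates and treated with compound for 48 hours. GI50 is the concentration that inhibits growth by half. The concentration for full growth arrest is given as TGI.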

What was measured:
Assay in all cases: NCI tumour cell line growth inhibition, 48 h
SNB-75 CNS = test system: SNB-75 CNS
OVCAR-3 ovarian = test system: OVCAR-3 ovarian
TK-10 renal = test system: TK-10 renal
K-562 leukemia = test system: K-562 leukemia
786-0 renal = test system: 786-0 renal
SK-MEL-2 melanoma = test system: SK-MEL-2 melanoma
SF-295 CNS = test system: SF-295 CNS
MOLT-4 leukemia = test system: MOLT-4 leukemia
UACC-257 melanoma = test system: UACC-257 melanoma
SR leukemia = test system: SR leukemia

| SMILES | GI50 (SNB-75 CNS) | TGI (SNB-75 CNS) | GI50 (OVCAR-3 ovarian) | TGI (OVCAR-3 ovarian) | GI50 (TK-10 renal) | TGI (TK-10 renal) | GI50 (K-562 leukemia) | TGI (K-562 leukemia) | GI50 (786-0 renal) | TGI (786-0 renal) | GI50 (SK-MEL-2 melanoma) | TGI (SK-MEL-2 melanoma) | GI50 (SF-295 CNS) | TGI (SF-295 CNS) | GI50 (MOLT-4 leukemia) | TGI (MOLT-4 leukemia) | GI50 (UACC-257 melanoma) | TGI (UACC-257 melanoma) | TGI (SR leukemia) | GI50 (SR leukemia) |
| --- | --- | --- | --- | --- | --- | --- | --- | --- | --- | --- | --- | --- | --- | --- | --- | --- | --- | --- | --- | --- |
| CCC[CH2][Sn]([CH2]CCC)([O]C(=O)c1cc(OC)c(OC)cc1OC)[O][Sn]([CH2]CCC)([CH2]CCC)[O]C(=O)c1cc(OC)c(OC)cc1OC | 0.124 µM | 0.7 µM | 0.798 µM | 2.07 µM | 1.53 µM | 2.86 µM | 0.0812 µM | 8.43 µM | 0.24 µM | 0.698 µM | 0.173 µM | 0.824 µM | 1.1 µM | 2.41 µM | 0.101 µM | 0.786 µM | 0.276 µM | 0.883 µM |  |  |
| COc1ccc2c(c1)/C(=C\c1ccncc1)C(=O)N2 |  |  | 10.4 µM | 27.5 µM | 15.1 µM | 30.5 µM | 3.41 µM | 9.56 µM | 12.5 µM | 29.3 µM | 6.12 µM | 23.6 µM | 15.7 µM | 72.8 µM |  |  | 4.62 µM | 18.3 µM |  |  |
| C/C(CC(=O)NCCc1ccccc1)=N\NS(=O)(=O)c1ccc(C)cc1 |  | > 100 µM |  | > 100 µM |  | > 100 µM |  | > 100 µM |  | > 100 µM |  | > 100 µM |  | > 100 µM |  | > 100 µM |  | > 100 µM |  |  |
| CC(C)/C=C1\CCC(CN2CCOCC2)C1=O (stereo not given) |  |  |  | 32.7 µM |  | 29.7 µM |  | 9.06 µM |  | 8.9 µM |  | 35.6 µM |  | > 77.7 µM |  | 10.2 µM |  | 20.1 µM | 13.1 µM |  |
| NC(=N\N=C/c1ccc(O)cc1)/C(N)=N\N=C/c1ccc(O)cc1 | 17.3 µM | 43.3 µM | > 100 µM | > 100 µM | > 100 µM | > 100 µM | 0.782 µM | > 100 µM | 21.1 µM | > 100 µM | > 79 µM | > 100 µM | 3.3 µM | > 100 µM | 0.623 µM | > 100 µM | > 100 µM | > 100 µM |  |  |
| COC1C(OC(=O)c2ccc(C)[nH]2)C(O)C(Oc2ccc3c(O)c(NC(=O)c4c[nH]c(C(=O)Nc5c(O)c6ccc(OC7OC(C)(C)C(OC)C(OC(=O)c8ccc(C)[nH]8)C7O)c(C)c6oc5=O)c4C)c(=O)oc3c2C)OC1(C)C (stereo not given) |  | 4.85 µM |  | 41.1 µM |  | 37.3 µM |  | > 100 µM |  | 5.42 µM |  | 4.42 µM |  | > 100 µM |  | 8.47 µM |  | 33.5 µM |  |  |
| N#C/C(=C1\SCC(=O)N1c1ccccc1)c1nc2ccccc2[nH]1 |  | > 100 µM |  | > 100 µM |  | > 100 µM |  | > 100 µM |  | > 100 µM |  | > 100 µM |  | > 100 µM |  | > 100 µM |  | > 100 µM |  |  |
| Cc1ccc(S(=O)(=O)N/N=C(\c2nc3ccc(Cl)cc3[nH]c2=O)C(O)c2ccco2)cc1 (stereo not given) |  | > 100 µM |  | > 100 µM |  | > 100 µM |  | > 100 µM |  | > 100 µM |  | > 100 µM |  | > 100 µM |  | > 100 µM |  | > 100 µM |  |  |
| CO/N=C(\COc1ccc2c(=O)c3ccccc3oc2c1)c1ccccc1 | 68.8 µM | > 100 µM | 27.4 µM | 79.3 µM | 18.6 µM | 38.1 µM | 72.1 µM | > 100 µM | 25.4 µM | 72.5 µM |  |  | 28.7 µM | 78.1 µM | > 100 µM | > 100 µM | 39.1 µM | > 100 µM |  |  |
| COc1ccccc1N=Nc1c(-c2ccccc2)nn(C(=O)CC(=O)Nc2cccc(C)c2)c1-c1ccccc1 |  | 93.5 µM |  | 53.9 µM |  | > 100 µM |  | 52.7 µM |  | > 100 µM |  |  |  | > 100 µM |  | 50.6 µM |  | > 100 µM |  |  |
| O=c1cccccc1[O-].O=c1cccccc1[O-].O=c1cccccc1[O-].[Eu+3] |  | 79 µM |  | 48.1 µM |  | > 100 µM |  | > 100 µM |  | > 100 µM |  | > 100 µM |  | > 100 µM |  | > 100 µM |  | 99.6 µM |  |  |
| O=S(=O)(NC1CCCCC1)c1ccc2c(c1)OCCOCCOCCOCCO2 |  | > 100 µM |  |  |  | > 100 µM |  | > 100 µM |  | > 100 µM |  |  |  | > 100 µM |  | > 100 µM |  | > 100 µM | > 100 µM |  |
| C=CO/N=[N+](\[O-])N(CC)CC |  | > 100 µM |  | > 100 µM |  | > 100 µM |  | > 100 µM |  | > 100 µM |  |  |  | > 100 µM |  | > 100 µM |  | > 100 µM | > 100 µM |  |
| [N-]=[N+]=NC(c1cn(C2CC(O)C(CO)O2)c(=O)[nH]c1=O)C(Cl)Br (stereo not given) |  | > 100 µM |  |  |  | > 100 µM |  | > 100 µM |  | > 100 µM |  | > 100 µM |  | > 100 µM |  | > 100 µM |  |  | > 100 µM |  |
| Cc1ccc(/C=C(\C#N)c2cc3ccccc3n2C)cc1 |  |  | 0.361 µM |  | > 100 µM | > 100 µM | 0.153 µM | > 100 µM | 0.709 µM | > 100 µM |  |  | 0.285 µM | 1.46 µM | 0.467 µM | > 100 µM | > 100 µM | > 100 µM | > 100 µM | 0.264 µM |
| Cc1cc(N(CCC#N)S(=O)(=O)c2ccccc2)ccc1/C=C1\N=C(c2ccc(Cl)cc2)OC1=O |  |  |  | > 100 µM |  |  |  | > 100 µM |  | > 100 µM |  | > 100 µM |  | > 100 µM |  | > 100 µM |  | > 100 µM |  |  |
| COc1ccc(-c2cc(=O)n(-c3nc4ccccc4[nH]3)[nH]2)cc1OC | 4.99 µM | 81.1 µM | 12.9 µM | > 100 µM |  |  | 3.73 µM | 25.7 µM | 12.4 µM | > 100 µM | 4.77 µM | 23.6 µM | 1.3 µM | 4.82 µM | 0.261 µM | 0.648 µM | 6.4 µM | 61 µM | > 100 µM | 3.85 µM |
| CCCn1c2c(c3c(O)cccc31)C(=O)c1ccccc1-2 |  |  | 31.3 µM | > 100 µM | 16.4 µM | > 100 µM | > 100 µM | > 100 µM | 14.6 µM | 52.2 µM | 87 µM | > 100 µM | 23 µM | 67.8 µM | 0.0475 µM | 7.31 µM | 22.9 µM | 96.5 µM | 23.8 µM | 0.0354 µM |
| CCO/C=C1\N=C(c2ccc(Cl)c(Cl)c2)OC1=O |  | > 100 µM |  | > 100 µM |  | > 100 µM |  | > 100 µM |  | > 100 µM |  | > 100 µM |  | > 100 µM |  | > 100 µM |  | > 100 µM |  |  |
